Data reported in patent US10703761B2, “Bile acid receptor modulators and methods of use thereof” (City of Hope, priority 2016, dated 2020).
Entries after “also recorded” stand apart in the source; their conditions may differ.

Assays:
FXR [1] = target: T1, FXR (Homo sapiens, UniProt Q96RI1); assay: FXR luciferase reporter assay, transient transfection with a synthetic FXR responsive reporter plasmid in HEK293 cells; type: cell-based
T1 construct: expressed in transfected cells; host or cells: HEK293 (transient)
T1 sequence (Q96RI1 1-486): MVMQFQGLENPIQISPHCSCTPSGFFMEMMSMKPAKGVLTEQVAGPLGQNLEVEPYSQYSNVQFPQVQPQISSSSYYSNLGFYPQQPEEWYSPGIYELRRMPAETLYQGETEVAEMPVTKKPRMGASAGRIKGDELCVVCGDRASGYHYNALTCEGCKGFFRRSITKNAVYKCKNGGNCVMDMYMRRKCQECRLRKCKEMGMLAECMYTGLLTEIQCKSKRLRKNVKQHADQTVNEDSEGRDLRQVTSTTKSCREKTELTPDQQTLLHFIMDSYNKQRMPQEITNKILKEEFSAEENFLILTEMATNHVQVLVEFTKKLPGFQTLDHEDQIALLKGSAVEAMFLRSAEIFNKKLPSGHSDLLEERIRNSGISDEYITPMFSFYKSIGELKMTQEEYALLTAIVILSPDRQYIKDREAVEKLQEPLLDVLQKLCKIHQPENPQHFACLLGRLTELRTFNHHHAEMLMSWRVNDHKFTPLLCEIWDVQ
T1 sequence (P19793 1-462 partner): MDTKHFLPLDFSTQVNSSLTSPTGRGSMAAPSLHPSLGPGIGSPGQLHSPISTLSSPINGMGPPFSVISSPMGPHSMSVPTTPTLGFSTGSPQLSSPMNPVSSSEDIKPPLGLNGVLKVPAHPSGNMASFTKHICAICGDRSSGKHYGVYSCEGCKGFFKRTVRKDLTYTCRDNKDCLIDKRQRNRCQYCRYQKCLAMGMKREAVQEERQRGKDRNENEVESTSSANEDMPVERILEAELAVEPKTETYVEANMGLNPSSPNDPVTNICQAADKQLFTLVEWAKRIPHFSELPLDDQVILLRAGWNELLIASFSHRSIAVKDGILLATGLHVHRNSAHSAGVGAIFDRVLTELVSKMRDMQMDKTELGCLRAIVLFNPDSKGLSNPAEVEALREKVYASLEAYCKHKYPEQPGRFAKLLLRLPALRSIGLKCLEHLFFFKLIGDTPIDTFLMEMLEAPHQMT
Experimental: Effect of berberine derivatives and γ-aminobutyric acid derivative on FXR inhibition was initially assessed using transient transfections with a synthetic FXR responsive reporter plasmid. HEK 293 Cells were treated with vehicle alone or 100 μM CDCA with or without compounds, as indicated. Results are luciferase expression normalized using the β-gal internal control.
TGR5-reporting activity was evaluated by luciferase assay. Treatments were performed in quadruplicate and normalized with β-galactosidase. HEK293 cells were transfected with FXR and RXRα, and FXRE-containing luciferase construct. Cells were treated with 10 μM of indicated compounds; luciferase was measured and normalized with β-galactosidase.
To evaluate TGR5 activity of compounds, cells were transfected 100 ng pCRE-luc reporter along with pCMV-galactosidase (10 ng) as an internal control for normalization of transfection efficiency. Plasmids were complexed with […] of Fugene 6 reagent (Promega, Madison, Wis.) in OptiMEM (Invitrogen, Carlsbad, Calif.) and cells were transfected for 18 h. The following day, cells were treated with vehicle and appropriate ligand as indicated. Luciferase and β-galactosidase activities were assayed 6 h later using Luciferase Assay System (Promega) and Galacto-Star (Applied Biosystems, Foster City, Calif.) reagents, respectively, and a MLX luminometer (Dynex Technologies, Chantilly, Va.). To evaluate the FXR activity of compounds, HEK293 cells were transfected with 25 ng of farnesoid X receptor expression plasmid (pCMX-hFXR), 25 ng of retinoid X receptor expression plasmid (pCMXhRXR), 100 ng of reporter plasmid (pEcREx6-TK-Luc), and 10 ng of pCMV-b-galactosidase as an internal control in each well, using Fugene 6 reagent. Approximately 18 h after transfection, cells were incubated for 12 h with different concentrations of each.

FXR [2] = target: T2, FXR (Homo sapiens, UniProt Q96RI1); assay: GeneBLAzer cell-based FXR transactivation assay (FXR-UAS-bla HEK 293T cells)
T2 construct: the Gal4 DBD was fused to the LBD of FXR in this assay
T2 sequence (Q96RI1 262-486 limits assumed): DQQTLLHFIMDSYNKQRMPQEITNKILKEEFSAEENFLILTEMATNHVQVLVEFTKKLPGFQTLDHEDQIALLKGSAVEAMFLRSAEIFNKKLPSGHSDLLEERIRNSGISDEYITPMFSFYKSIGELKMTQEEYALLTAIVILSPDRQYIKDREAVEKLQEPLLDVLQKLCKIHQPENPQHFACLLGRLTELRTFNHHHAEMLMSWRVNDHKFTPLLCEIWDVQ
Experimental: To investigate the cellular activities of the novel berberine derivatives, we used a GeneBLAzer FXR cell-based assay, which detects the levels of a β-lactamase reporter controlled by a promoter containing the binding site of the DNA binding domain (DBD) of the GAL4 transcription factor; the Gal4 DBD was fused to the LBD of FXR in this assay. In typical test for agonists, DMSO (vehicle and negative control), 10 μM GW4064 (positive control), and titrations of GW4064, LCA or the 24 newly synthesized novel berberien derivatives analogs were mixed with GeneBLAzer FXR-UAS-bla HEK 293T cells. Reporter assays were performed after a 16 h incubation. […] For the experiments to evaluate the antagonistic activity, titrations of compounds were tested in the presence of 400 nM GW4064. […]
FXR transactivation assay was performed using GeneBLAzer FXR-UAS-bla HEK 293T cells (Invitrogen) as previously described with minor modifications. […] Plates were then incubated in the dark for 90 min at room temperature before measuring the fluorescent emissions at 460 nm and 535 nm (using excitation at 400 nm) with an Envision plate reader with bottom read capacity. […] The % Activation was calculated using Eq. 2.
[formula] […] The % Inhibition was calculated using Eq. 3. […]

In the case of `O=C(O)CCCN1C(=O)c2ccccc2C1=O` [DY419], the “Inhibition of FXR activation by CDCA (FXR antagonism)” value (FXR [1]; CDCA 100 μM, compounds 10 μM) is reported as “strongly inhibited FXR activation; also recorded: activated FXR receptor to exert FXR antagonistic biological function” and the “FXR activity of compound alone (agonism)” value (FXR [1]; compound alone, compared with GW4064) is reported as “no effect on FXR activity”.

With `COc1ccc2cc3[n+](cc2c1NCCc1ccc(O)c(O)c1)CCc1cc2c(cc1-3)OCO2` [DY322, Berberine-Dopamine Hybrid] the “FXR antagonist activity in cell-based FXR transactivation assay” value (FXR [2]) was “identified as FXR antagonists” and the melting point was 198.4 °C.

For `COc1ccc2cc3[n+](cc2c1NCc1cccc(B(O)O)c1)CCc1cc2c(cc1-3)OCO2` [DY323, Berberine-Phenylboronic Hybrid], the “FXR antagonist activity in cell-based FXR transactivation assay” value (FXR [2]) was “identified as FXR antagonists” and the melting point was 228.7 °C.
